{"source": "patent US20200069772A1", "about": "“METHODS OF TREATING EARLY RHEUMATOID ARTHRITIS” (BRISTOL-MYERS SQUIBB COMPANY, priority 2014, published 2020)", "key": {"patients with early RA [1]": {"tested_on": "patients with early RA", "assay": "AVERT phase 3b randomized active-controlled trial: signs and symptoms (DAS-defined remission, other remission and ACR measures)", "format": "in vivo, human", "protocol": "Patients receiving oral corticosteroids were required to be on a stable dose (≤10 mg/day for ≥4 weeks) at initiation and to maintain that dose until Month 12.\nAll patients received concomitant folic acid therapy.\nPatients with DAS28 (CRP)≥3.2 were discontinued.\nFor the purpose of this study, DAS-defined remission was DAS28 (CRP)<2.6.\nExploratory endpoints included: Other remission rates (Simplified Disease Activity Index [SDAI; ≤3.3], Clinical Disease Activity Index [CDAI; ≤2.8] and Boolean remission [28-joint tender joint count ≤1 and 28-joint swollen joint count ≤1 and patient global assessment of disease activity [0-10 cm]≤1 and high-sensitivity CRP≤1 mg/dL]), American College of Rheumatology (ACR) responses and Major Clinical Response (ACR 70 response for 6 months at any time period) in each arm.\nCo-primary endpoints were tested in hierarchical fashion. […] All patients who discontinued prior to completing the treatment or withdrawal period were imputed as non-responders for the Month 12 or 18 analyses.\nEndpoints of Disease Activity Score (DAS)-defined remission, SDAI remission, CDAI remission, Boolean remission, ACR 20/50/70 response and Major Clinical Response over time were summarized using descriptive statistics (with 95% confidence intervals at each time point).\nFor each treatment arm, a post hoc analysis was performed of mean baseline characteristics for patients who achieved DAS-defined remission at only Month 12 and at both Months 12 and 18, and of the proportions of patients who achieved DAS-defined remission based on these characteristics. An analysis of the overall treatment effect in mean change from baseline in DAS28 (CRP) (including data up to Month 12 of the treatment period) was performed for each treatment arm. Overall treatment effect and treatment differences between the three arms were obtained using a longitudinal repeated measures model including fixed categorical effects of treatment, months, and prior corticosteroid use as well as the continuous fixed covariate of baseline value. An unstructured covariance matrix was used to represent the correlation of the repeated measures within each subject."}, "patients with early RA [2]": {"tested_on": "patients with early RA", "assay": "AVERT trial: HAQ-DI response (≥0.3 points reduction from baseline)", "format": "in vivo, human", "settings": "Month 12"}, "[3]": {"settings": "treatment period, compared subgroups not stated"}}, "note": "Where “and” joins values, the source holds several entries; their conditions need not be identical. Equal values may be shown once."}
{"smiles": "CN(Cc1cnc2nc(N)nc(N)c2n1)c1ccc(C(=O)N[C@@H](CCC(=O)O)C(=O)O)cc1", "note": "[MTX, methotrexate]", "values": [{"measurement": "proportion of patients in DAS-defined remission (DAS28 [CRP]<2.6) at Month 12", "setting": "patients with early RA [1]; Month 12 of treatment period, patients with baseline DAS28 (CRP), discontinuations imputed as non-responders", "result": 45.2, "unit": "%"}, {"measurement": "proportion of patients in DAS-defined remission (DAS28 [CRP]<2.6) at both Months 12 and 18", "setting": "patients with early RA [1]; after withdrawal of all RA therapy at Month 12, only patients with DAS28 (CRP) available at baseline", "result": 7.8, "unit": "%"}, {"measurement": "patients remaining in DAS-defined remission at Month 18", "setting": "patients with early RA [1]; of the patients who entered the withdrawal period in DAS-defined remission at Month 12", "result": 16.9, "unit": "%"}, {"measurement": "Proportion of Patients with DAS-defined Remission (DAS28 [CRP] < 2.6) at Both Months 12 and 18", "setting": "patients with early RA [1]; post hoc subgroup: baseline DAS28 (CRP) >Median (5.4)", "result": "3/55 (5.5) %"}, {"measurement": "Proportion of Patients with DAS-defined Remission (DAS28 [CRP] < 2.6) at Both Months 12 and 18", "setting": "patients with early RA [1]; post hoc subgroup: baseline DAS28 (CRP) Missing", "result": "0/1 (0) %"}, {"measurement": "Proportion of Patients with DAS-defined Remission (DAS28 [CRP] < 2.6) at Both Months 12 and 18", "setting": "patients with early RA [1]; post hoc subgroup: baseline DAS28 (CRP) ≤Median (5.4)", "result": "6/60 (10.0) %"}, {"measurement": "Proportion of Patients with DAS-defined Remission (DAS28 [CRP] < 2.6) at Both Months 12 and 18", "setting": "patients with early RA [1]; post hoc subgroup: baseline Erosion >Median (4.5)", "result": "3/50 (6.0) %"}, {"measurement": "Proportion of Patients with DAS-defined Remission (DAS28 [CRP] < 2.6) at Both Months 12 and 18", "setting": "patients with early RA [1]; post hoc subgroup: baseline Erosion >Q1 (1.5)-Q2 (4.5)", "result": "2/23 (8.7) %"}, {"measurement": "Proportion of Patients with DAS-defined Remission (DAS28 [CRP] < 2.6) at Both Months 12 and 18", "setting": "patients with early RA [1]; post hoc subgroup: baseline Erosion >Q2 (4.5)-Q3 (8.5)", "result": "2/23 (8.7) %"}, {"measurement": "Proportion of Patients with DAS-defined Remission (DAS28 [CRP] < 2.6) at Both Months 12 and 18", "setting": "patients with early RA [1]; post hoc subgroup: baseline Erosion >Q3 (8.5)", "result": "1/27 (3.7) %"}, {"measurement": "Proportion of Patients with DAS-defined Remission (DAS28 [CRP] < 2.6) at Both Months 12 and 18", "setting": "patients with early RA [1]; post hoc subgroup: baseline Erosion Missing", "result": "2/13 (15.4) %"}, {"measurement": "Proportion of Patients with DAS-defined Remission (DAS28 [CRP] < 2.6) at Both Months 12 and 18", "setting": "patients with early RA [1]; post hoc subgroup: baseline Erosion ≤Median (4.5)", "result": "4/53 (7.5) %"}, {"measurement": "Proportion of Patients with DAS-defined Remission (DAS28 [CRP] < 2.6) at Both Months 12 and 18", "setting": "patients with early RA [1]; post hoc subgroup: baseline Erosion ≤Q1 (1.5)", "result": "2/30 (6.7) %"}, {"measurement": "Proportion of Patients with DAS-defined Remission (DAS28 [CRP] < 2.6) at Both Months 12 and 18", "setting": "patients with early RA [1]; post hoc subgroup: baseline HAQ-DI >Median (1.375)", "result": "5/49 (10.2) %"}, {"measurement": "Proportion of Patients with DAS-defined Remission (DAS28 [CRP] < 2.6) at Both Months 12 and 18", "setting": "patients with early RA [1]; post hoc subgroup: baseline HAQ-DI Missing", "result": "0/11 (0) %"}, {"measurement": "Proportion of Patients with DAS-defined Remission (DAS28 [CRP] < 2.6) at Both Months 12 and 18", "setting": "patients with early RA [1]; post hoc subgroup: baseline HAQ-DI ≤Median (1.375)", "result": "4/56 (7.1) %"}, {"measurement": "Proportion of Patients with DAS-defined Remission (DAS28 [CRP] < 2.6) at Both Months 12 and 18", "setting": "patients with early RA [1]; post hoc subgroup: baseline Osteitis >Median (0.5)", "result": "3/49 (6.1) %"}, {"measurement": "Proportion of Patients with DAS-defined Remission (DAS28 [CRP] < 2.6) at Both Months 12 and 18", "setting": "patients with early RA [1]; post hoc subgroup: baseline Osteitis >Q1 (0)-Q2 (0.5)", "result": "0/5 (0) %"}, {"measurement": "Proportion of Patients with DAS-defined Remission (DAS28 [CRP] < 2.6) at Both Months 12 and 18", "setting": "patients with early RA [1]; post hoc subgroup: baseline Osteitis >Q2 (0.5)-Q3 (5)", "result": "2/26 (7.7) %"}, {"measurement": "Proportion of Patients with DAS-defined Remission (DAS28 [CRP] < 2.6) at Both Months 12 and 18", "setting": "patients with early RA [1]; post hoc subgroup: baseline Osteitis >Q3 (5)", "result": "1/23 (4.3) %"}, {"measurement": "Proportion of Patients with DAS-defined Remission (DAS28 [CRP] < 2.6) at Both Months 12 and 18", "setting": "patients with early RA [1]; post hoc subgroup: baseline Osteitis Missing", "result": "2/13 (15.4) %"}, {"measurement": "Proportion of Patients with DAS-defined Remission (DAS28 [CRP] < 2.6) at Both Months 12 and 18", "setting": "patients with early RA [1]; post hoc subgroup: baseline Osteitis ≤Median (0.5)", "result": "4/54 (7.4) %"}, {"measurement": "Proportion of Patients with DAS-defined Remission (DAS28 [CRP] < 2.6) at Both Months 12 and 18", "setting": "patients with early RA [1]; post hoc subgroup: baseline Osteitis ≤Q1 (0)", "result": "4/49 (8.2) %"}, {"measurement": "Proportion of Patients with DAS-defined Remission (DAS28 [CRP] < 2.6) at Both Months 12 and 18", "setting": "patients with early RA [1]; post hoc subgroup: baseline Pain (100 mm VAS) >Median (62)", "result": "2/45 (4.4) %"}, {"measurement": "Proportion of Patients with DAS-defined Remission (DAS28 [CRP] < 2.6) at Both Months 12 and 18", "setting": "patients with early RA [1]; post hoc subgroup: baseline Pain (100 mm VAS) Missing", "result": "0/11 (0.0) %"}, {"measurement": "Proportion of Patients with DAS-defined Remission (DAS28 [CRP] < 2.6) at Both Months 12 and 18", "setting": "patients with early RA [1]; post hoc subgroup: baseline Pain (100 mm VAS) ≤Median (62)", "result": "7/60 (11.7) %"}, {"measurement": "Proportion of Patients with DAS-defined Remission (DAS28 [CRP] < 2.6) at Both Months 12 and 18", "setting": "patients with early RA [1]; post hoc subgroup: baseline Synovitis >Median (4.5)", "result": "3/56 (5.4) %"}, {"measurement": "Proportion of Patients with DAS-defined Remission (DAS28 [CRP] < 2.6) at Both Months 12 and 18", "setting": "patients with early RA [1]; post hoc subgroup: baseline Synovitis >Q1 (2)-Q2 (4.5)", "result": "1/23 (4.3) %"}, {"measurement": "Proportion of Patients with DAS-defined Remission (DAS28 [CRP] < 2.6) at Both Months 12 and 18", "setting": "patients with early RA [1]; post hoc subgroup: baseline Synovitis >Q2 (4.5)-Q3 (8.5)", "result": "1/30 (3.3) %"}, {"measurement": "Proportion of Patients with DAS-defined Remission (DAS28 [CRP] < 2.6) at Both Months 12 and 18", "setting": "patients with early RA [1]; post hoc subgroup: baseline Synovitis >Q3 (8.5)", "result": "2/26 (7.7) %"}, {"measurement": "Proportion of Patients with DAS-defined Remission (DAS28 [CRP] < 2.6) at Both Months 12 and 18", "setting": "patients with early RA [1]; post hoc subgroup: baseline Synovitis Missing", "result": "2/13 (15.4) %"}, {"measurement": "Proportion of Patients with DAS-defined Remission (DAS28 [CRP] < 2.6) at Both Months 12 and 18", "setting": "patients with early RA [1]; post hoc subgroup: baseline Synovitis ≤Median (4.5)", "result": "4/47 (8.5) %"}, {"measurement": "Proportion of Patients with DAS-defined Remission (DAS28 [CRP] < 2.6) at Both Months 12 and 18", "setting": "patients with early RA [1]; post hoc subgroup: baseline Synovitis ≤Q1 (2)", "result": "3/24 (12.5) %"}, {"measurement": "Proportion of Patients with DAS-defined Remission (DAS28 [CRP] < 2.6) at Both Months 12 and 18", "setting": "patients with early RA [1]; post hoc subgroup: symptom duration >6 Months", "result": "2/39 (5.1) %"}, {"measurement": "Proportion of Patients with DAS-defined Remission (DAS28 [CRP] < 2.6) at Both Months 12 and 18", "setting": "patients with early RA [1]; post hoc subgroup: symptom duration >Median (0.37 years)", "result": "4/47 (8.5) %"}, {"measurement": "Proportion of Patients with DAS-defined Remission (DAS28 [CRP] < 2.6) at Both Months 12 and 18", "setting": "patients with early RA [1]; post hoc subgroup: symptom duration ≤6 Months", "result": "7/77 (9.1) %"}, {"measurement": "Proportion of Patients with DAS-defined Remission (DAS28 [CRP] < 2.6) at Both Months 12 and 18", "setting": "patients with early RA [1]; post hoc subgroup: symptom duration ≤Median (0.37 years)", "result": "5/69 (7.2) %"}, {"measurement": "time with DAS28 (CRP) <2.6 during the treatment period (first value of 'x vs y')", "setting": "patients with early RA [1]; [3]", "result": 5.8, "unit": "months"}, {"measurement": "time with DAS28 (CRP) <2.6 during the treatment period (second value of 'x vs y')", "setting": "patients with early RA [1]; [3]", "result": 5.7, "unit": "months"}, {"measurement": "HAQ-DI Response (≥0.3), proportion of patients", "setting": "patients with early RA [2]", "result": "44.0% and 51 (44.0) %"}]}
